Results reported in publication PMC6407917, “Identification of GSK3186899/DDD853651 as a Preclinical Development Candidate for the Treatment of Visceral Leishmaniasis” (Journal of Medicinal Chemistry, 2018).

Experiments:
Cdk4 = Cdk4 (Homo sapiens, UniProt P11802); details: mixed human cell/tissue extract; maximum concentration 20 μM
CYP3A4 = CYP3A4 (Homo sapiens, UniProt P08684); assay: midazolam marker-substrate inhibition assay, LC-MS/MS; type: biochemical
Source text: midazolam marker-substrate inhibition assay, LC-MS/MS on CYP3A4

CAMK1 = CAMK1 (Homo sapiens, UniProt Q14012); assay: biochemical; set-up: species or system HEK293/K-562/placenta mixed human extract; Kinobeads chemoproteomic competition binding, quantified by TMT LC-MS/MS, dose response up to 20 uM
IKBKB = IKBKB (Homo sapiens, UniProt O14920); assay: biochemical; set-up: species or system HEK293/K-562/placenta mixed human extract; Kinobeads chemoproteomic competition binding, quantified by TMT LC-MS/MS, dose response up to 20 uM
EPHA4 = EPHA4 (Homo sapiens, UniProt P54764); assay: biochemical; set-up: species or system HEK293/K-562/placenta mixed human extract; Kinobeads chemoproteomic competition binding, quantified by TMT LC-MS/MS, dose response up to 20 uM
PRKACA = PRKACA (Homo sapiens, UniProt P17612); assay: biochemical; set-up: species or system HEK293/K-562/placenta mixed human extract; Kinobeads chemoproteomic competition binding, quantified by TMT LC-MS/MS, dose response up to 20 uM
MAP2K1 = MAP2K1 (Homo sapiens, UniProt Q02750); assay: biochemical; set-up: species or system HEK293/K-562/placenta mixed human extract; Kinobeads chemoproteomic competition binding, quantified by TMT LC-MS/MS, dose response up to 20 uM
TGFBR1 = TGFBR1 (Homo sapiens, UniProt P36897); assay: biochemical; set-up: species or system HEK293/K-562/placenta mixed human extract; Kinobeads chemoproteomic competition binding, quantified by TMT LC-MS/MS, dose response up to 20 uM
FGR = FGR (Homo sapiens, UniProt P09769); assay: biochemical; set-up: species or system HEK293/K-562/placenta mixed human extract; Kinobeads chemoproteomic competition binding, quantified by TMT LC-MS/MS, dose response up to 20 uM
DDR1 = DDR1 (Homo sapiens, UniProt Q08345); assay: biochemical; set-up: species or system HEK293/K-562/placenta mixed human extract; Kinobeads chemoproteomic competition binding, quantified by TMT LC-MS/MS, dose response up to 20 uM
MAPK9 = MAPK9 (Homo sapiens, UniProt P45984); assay: biochemical; set-up: species or system HEK293/K-562/placenta mixed human extract; Kinobeads chemoproteomic competition binding, quantified by TMT LC-MS/MS, dose response up to 20 uM
RPS6KA5 = RPS6KA5 (Homo sapiens, UniProt O75582); assay: biochemical; set-up: species or system HEK293/K-562/placenta mixed human extract; Kinobeads chemoproteomic competition binding, quantified by TMT LC-MS/MS, dose response up to 20 uM
RB1CC1 = RB1CC1 (Homo sapiens, UniProt Q8TDY2); assay: biochemical; set-up: species or system HEK293/K-562/placenta mixed human extract; Kinobeads chemoproteomic competition binding, quantified by TMT LC-MS/MS, dose response up to 20 uM
TYK2 = TYK2 (Homo sapiens, UniProt P29597); assay: biochemical; set-up: species or system HEK293/K-562/placenta mixed human extract; Kinobeads chemoproteomic competition binding, quantified by TMT LC-MS/MS, dose response up to 20 uM
STK4 = STK4 (Homo sapiens, UniProt Q13043); assay: biochemical; set-up: species or system HEK293/K-562/placenta mixed human extract; Kinobeads chemoproteomic competition binding, quantified by TMT LC-MS/MS, dose response up to 20 uM
CDC42BPG = CDC42BPG (Homo sapiens, UniProt Q6DT37); assay: biochemical; set-up: species or system HEK293/K-562/placenta mixed human extract; Kinobeads chemoproteomic competition binding, quantified by TMT LC-MS/MS, dose response up to 20 uM
PIP4K2B = PIP4K2B (Homo sapiens, UniProt P78356); assay: biochemical; set-up: species or system HEK293/K-562/placenta mixed human extract; Kinobeads chemoproteomic competition binding, quantified by TMT LC-MS/MS, dose response up to 20 uM
CDK9 = CDK9 (Homo sapiens, UniProt P50750); assay: biochemical; set-up: species or system HEK293/K-562/placenta mixed human extract; Kinobeads chemoproteomic competition binding, quantified by TMT LC-MS/MS, dose response up to 20 uM
YWHAG = YWHAG (Homo sapiens, UniProt P61981); assay: biochemical; set-up: species or system HEK293/K-562/placenta mixed human extract; Kinobeads chemoproteomic competition binding, quantified by TMT LC-MS/MS, dose response up to 20 uM
SNRK = SNRK (Homo sapiens, UniProt Q9NRH2); assay: biochemical; set-up: species or system HEK293/K-562/placenta mixed human extract; Kinobeads chemoproteomic competition binding, quantified by TMT LC-MS/MS, dose response up to 20 uM
SIK1 = SIK1 (Homo sapiens, UniProt P57059); assay: biochemical; set-up: species or system HEK293/K-562/placenta mixed human extract; Kinobeads chemoproteomic competition binding, quantified by TMT LC-MS/MS, dose response up to 20 uM

Cdk4, sequence (P11802 2-303): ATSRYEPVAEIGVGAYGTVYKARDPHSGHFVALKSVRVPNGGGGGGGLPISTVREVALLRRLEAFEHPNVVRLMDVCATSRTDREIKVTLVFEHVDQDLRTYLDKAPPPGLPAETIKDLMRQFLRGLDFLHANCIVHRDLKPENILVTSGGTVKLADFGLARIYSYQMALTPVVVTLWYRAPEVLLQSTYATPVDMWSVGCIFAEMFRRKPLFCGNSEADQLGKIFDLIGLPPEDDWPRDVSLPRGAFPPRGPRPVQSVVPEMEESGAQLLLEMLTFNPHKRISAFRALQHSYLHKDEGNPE
PIP4K2B, sequence (P78356 whole entry): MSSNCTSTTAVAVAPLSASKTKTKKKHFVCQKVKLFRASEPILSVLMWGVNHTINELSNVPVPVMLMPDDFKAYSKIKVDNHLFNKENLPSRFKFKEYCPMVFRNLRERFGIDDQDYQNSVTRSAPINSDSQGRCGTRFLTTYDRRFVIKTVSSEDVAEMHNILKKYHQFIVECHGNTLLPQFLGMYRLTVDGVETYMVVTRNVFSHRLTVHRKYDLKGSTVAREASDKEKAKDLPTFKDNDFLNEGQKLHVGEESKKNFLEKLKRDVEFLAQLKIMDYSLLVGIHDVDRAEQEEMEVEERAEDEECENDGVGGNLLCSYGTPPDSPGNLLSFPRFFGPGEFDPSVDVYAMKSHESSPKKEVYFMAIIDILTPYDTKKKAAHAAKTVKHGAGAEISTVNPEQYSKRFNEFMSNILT
TGFBR1, sequence (P36897 whole entry): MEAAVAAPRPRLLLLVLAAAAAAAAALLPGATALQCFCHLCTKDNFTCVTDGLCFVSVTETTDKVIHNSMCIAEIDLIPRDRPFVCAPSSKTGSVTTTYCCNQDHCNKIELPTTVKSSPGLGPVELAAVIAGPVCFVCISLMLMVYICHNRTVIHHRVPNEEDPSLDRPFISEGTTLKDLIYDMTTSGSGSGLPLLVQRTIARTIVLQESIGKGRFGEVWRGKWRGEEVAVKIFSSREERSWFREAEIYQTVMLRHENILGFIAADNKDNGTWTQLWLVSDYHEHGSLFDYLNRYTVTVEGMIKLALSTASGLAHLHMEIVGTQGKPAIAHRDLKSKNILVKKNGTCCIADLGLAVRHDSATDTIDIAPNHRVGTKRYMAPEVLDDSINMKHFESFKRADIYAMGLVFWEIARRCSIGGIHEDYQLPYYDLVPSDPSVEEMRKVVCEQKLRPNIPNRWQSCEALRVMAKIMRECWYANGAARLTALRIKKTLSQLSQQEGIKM
CAMK1, sequence (Q14012 whole entry): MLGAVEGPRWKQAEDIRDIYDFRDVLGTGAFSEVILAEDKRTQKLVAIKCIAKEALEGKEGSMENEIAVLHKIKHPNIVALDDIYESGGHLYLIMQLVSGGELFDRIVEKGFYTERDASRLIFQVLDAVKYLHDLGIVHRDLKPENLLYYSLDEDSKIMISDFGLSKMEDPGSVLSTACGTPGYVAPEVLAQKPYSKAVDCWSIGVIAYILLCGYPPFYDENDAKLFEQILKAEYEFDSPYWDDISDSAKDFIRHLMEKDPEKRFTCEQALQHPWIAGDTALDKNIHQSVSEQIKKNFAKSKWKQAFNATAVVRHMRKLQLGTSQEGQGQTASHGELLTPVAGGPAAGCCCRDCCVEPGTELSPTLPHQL
CDK9, sequence (P50750 whole entry): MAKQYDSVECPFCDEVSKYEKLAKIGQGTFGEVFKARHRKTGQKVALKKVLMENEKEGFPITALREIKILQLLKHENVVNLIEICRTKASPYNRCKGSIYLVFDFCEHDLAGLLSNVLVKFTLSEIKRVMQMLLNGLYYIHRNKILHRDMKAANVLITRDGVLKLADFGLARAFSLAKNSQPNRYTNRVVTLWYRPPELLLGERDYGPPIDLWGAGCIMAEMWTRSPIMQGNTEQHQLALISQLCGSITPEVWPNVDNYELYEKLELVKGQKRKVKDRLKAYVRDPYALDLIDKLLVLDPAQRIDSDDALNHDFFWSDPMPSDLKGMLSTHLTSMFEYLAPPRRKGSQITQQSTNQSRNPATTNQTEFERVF
FGR, sequence (P09769 whole entry): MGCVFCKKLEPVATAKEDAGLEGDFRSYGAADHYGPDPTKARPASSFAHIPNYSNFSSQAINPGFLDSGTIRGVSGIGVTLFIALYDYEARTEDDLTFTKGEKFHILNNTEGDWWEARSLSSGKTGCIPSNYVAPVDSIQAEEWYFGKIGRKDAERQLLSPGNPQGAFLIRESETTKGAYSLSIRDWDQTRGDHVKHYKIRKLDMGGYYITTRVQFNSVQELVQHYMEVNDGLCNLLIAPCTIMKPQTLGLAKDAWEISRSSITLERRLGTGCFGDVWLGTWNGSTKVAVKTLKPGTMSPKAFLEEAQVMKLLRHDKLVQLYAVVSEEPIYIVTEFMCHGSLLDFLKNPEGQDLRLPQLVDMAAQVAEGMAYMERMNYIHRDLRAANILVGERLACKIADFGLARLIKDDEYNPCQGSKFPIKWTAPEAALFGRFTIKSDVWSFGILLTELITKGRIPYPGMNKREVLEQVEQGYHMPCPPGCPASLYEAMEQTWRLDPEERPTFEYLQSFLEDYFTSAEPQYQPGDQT
RB1CC1, sequence (Q8TDY2 whole entry): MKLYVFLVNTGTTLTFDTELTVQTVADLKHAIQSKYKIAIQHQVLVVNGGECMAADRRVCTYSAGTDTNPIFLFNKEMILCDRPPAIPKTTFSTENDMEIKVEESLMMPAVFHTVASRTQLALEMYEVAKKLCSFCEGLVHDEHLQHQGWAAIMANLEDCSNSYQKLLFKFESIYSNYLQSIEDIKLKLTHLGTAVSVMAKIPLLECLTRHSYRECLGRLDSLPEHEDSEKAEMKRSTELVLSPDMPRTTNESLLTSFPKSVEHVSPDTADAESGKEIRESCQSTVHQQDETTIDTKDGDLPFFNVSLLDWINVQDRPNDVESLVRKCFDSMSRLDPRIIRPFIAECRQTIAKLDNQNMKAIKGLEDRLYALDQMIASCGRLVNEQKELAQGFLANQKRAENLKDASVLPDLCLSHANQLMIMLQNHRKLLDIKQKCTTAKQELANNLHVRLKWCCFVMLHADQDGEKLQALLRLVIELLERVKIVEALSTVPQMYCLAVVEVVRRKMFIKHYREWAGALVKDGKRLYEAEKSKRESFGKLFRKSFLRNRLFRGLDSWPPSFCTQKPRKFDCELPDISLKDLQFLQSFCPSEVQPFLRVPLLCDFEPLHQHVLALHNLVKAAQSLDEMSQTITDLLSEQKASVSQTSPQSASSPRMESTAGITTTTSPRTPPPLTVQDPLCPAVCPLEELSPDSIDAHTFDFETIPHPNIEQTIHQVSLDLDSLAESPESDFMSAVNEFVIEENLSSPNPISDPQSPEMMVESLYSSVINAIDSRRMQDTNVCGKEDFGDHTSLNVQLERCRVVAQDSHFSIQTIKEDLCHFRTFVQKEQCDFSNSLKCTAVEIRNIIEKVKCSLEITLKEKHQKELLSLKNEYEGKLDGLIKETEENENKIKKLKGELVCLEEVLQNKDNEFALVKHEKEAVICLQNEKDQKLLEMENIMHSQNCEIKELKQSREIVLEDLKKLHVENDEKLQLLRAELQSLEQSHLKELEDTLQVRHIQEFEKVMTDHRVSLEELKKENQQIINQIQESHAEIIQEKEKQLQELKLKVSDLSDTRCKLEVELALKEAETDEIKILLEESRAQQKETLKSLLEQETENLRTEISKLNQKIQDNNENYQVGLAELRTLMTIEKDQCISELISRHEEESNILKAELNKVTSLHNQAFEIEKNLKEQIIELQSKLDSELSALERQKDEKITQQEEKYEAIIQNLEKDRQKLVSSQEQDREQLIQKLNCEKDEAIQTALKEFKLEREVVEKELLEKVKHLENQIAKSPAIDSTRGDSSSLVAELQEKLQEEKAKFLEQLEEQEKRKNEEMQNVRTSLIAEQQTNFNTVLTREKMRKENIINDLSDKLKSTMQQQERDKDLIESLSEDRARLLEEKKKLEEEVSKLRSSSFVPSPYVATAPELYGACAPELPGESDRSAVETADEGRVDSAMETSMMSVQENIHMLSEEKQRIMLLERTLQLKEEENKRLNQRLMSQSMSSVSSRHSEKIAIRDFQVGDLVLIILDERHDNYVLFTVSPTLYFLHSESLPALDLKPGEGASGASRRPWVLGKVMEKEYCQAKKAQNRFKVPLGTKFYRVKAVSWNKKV
MAPK9, sequence (P45984 whole entry): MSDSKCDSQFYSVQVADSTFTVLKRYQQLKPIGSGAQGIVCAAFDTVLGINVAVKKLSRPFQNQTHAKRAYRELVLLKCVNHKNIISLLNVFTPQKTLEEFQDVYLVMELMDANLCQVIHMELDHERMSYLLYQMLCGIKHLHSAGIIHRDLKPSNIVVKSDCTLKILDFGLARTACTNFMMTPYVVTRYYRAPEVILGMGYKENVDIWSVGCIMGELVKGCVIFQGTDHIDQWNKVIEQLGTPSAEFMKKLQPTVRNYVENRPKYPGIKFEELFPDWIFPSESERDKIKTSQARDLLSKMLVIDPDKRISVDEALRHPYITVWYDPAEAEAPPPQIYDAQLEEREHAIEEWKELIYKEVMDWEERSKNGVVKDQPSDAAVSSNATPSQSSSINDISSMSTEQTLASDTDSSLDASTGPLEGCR
YWHAG, sequence (P61981 whole entry): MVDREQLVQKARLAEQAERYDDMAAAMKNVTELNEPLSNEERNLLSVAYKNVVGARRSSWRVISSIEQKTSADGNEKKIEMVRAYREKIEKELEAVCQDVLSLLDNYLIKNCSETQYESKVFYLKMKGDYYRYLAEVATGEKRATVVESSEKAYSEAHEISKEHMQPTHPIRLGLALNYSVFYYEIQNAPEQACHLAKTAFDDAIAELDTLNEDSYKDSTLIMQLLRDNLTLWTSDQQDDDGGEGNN

**Q.** For `COc1nc(N[C@H]2CC[C@H](NS(=O)(=O)CC(C)C)CC2)nc2[nH]nc(N3CCOC[C@H]3C)c12` [compound 39, N-(trans-4-((4-Methoxy-3-((R)-3-methylmorpholino)-1H-pyrazolo[3,4-d]pyrimidin-6-yl)amino)cyclohexyl)-2-methylpropane-1-sulfonamide], which IC50 (Cdk4) is on record?
**A.** > 20 µM

**Q.** And the IC50 (CYP3A4)?
**A.** > 39.8 µM

**Q.** What about the IC50 (CAMK1) of the same compound?
**A.** ≥ 20 µM

**Q.** And the IC50 (IKBKB)?
**A.** ≥ 20 µM

**Q.** What about the IC50 (EPHA4) of the same compound?
**A.** ≥ 20 µM

**Q.** What about the IC50 (PRKACA) of the same compound?
**A.** ≥ 20 µM

**Q.** What about the IC50 (MAP2K1) of the same compound?
**A.** ≥ 20 µM

**Q.** What about the IC50 (TGFBR1) of the same compound?
**A.** ≥ 20 µM

**Q.** What about the IC50 (FGR) of the same compound?
**A.** ≥ 20 µM

**Q.** And the IC50 (DDR1)?
**A.** ≥ 20 µM

**Q.** What about the IC50 (MAPK9) of the same compound?
**A.** ≥ 20 µM

**Q.** And the IC50 (RPS6KA5)?
**A.** ≥ 20 µM

**Q.** What about the IC50 (RB1CC1) of the same compound?
**A.** ≥ 20 µM

**Q.** And the IC50 (TYK2)?
**A.** ≥ 20 µM

**Q.** And the IC50 (STK4)?
**A.** ≥ 20 µM

**Q.** What about the IC50 (CDC42BPG) of the same compound?
**A.** ≥ 20 µM

**Q.** What about the IC50 (PIP4K2B) of the same compound?
**A.** ≥ 20 µM

**Q.** For `COc1ccccc1-c1n[nH]c2nc(N[C@H]3CC[C@H](NS(=O)(=O)CCC(F)(F)F)CC3)nc(OC)c12` [compound 31, 3,3,3-Trifluoro-N-(trans-4-((4-methoxy-3-(2-methoxyphenyl)-1H-pyrazolo[3,4-d]pyrimidin-6-yl)amino)cyclohexyl)propane-1-sulfonamide], which IC50 (CDK9) is on record?
**A.** 3.6 µM

**Q.** And the IC50 (YWHAG)?
**A.** ≥ 20 µM

**Q.** What about the IC50 (SNRK) of the same compound?
**A.** ≥ 20 µM

**Q.** What about the IC50 (SIK1) of the same compound?
**A.** ≥ 20 µM
